Assay results as given in patent publication US10189853B2, “Conformationally restricted 4-substituted-2,6-dimethylfuro[2,3-d]pyrimidines as anti-tumor agents” (DUQUESNE UNIVERSITY OF THE HOLY SPIRIT, priority 2014, dated 2019).

Assays:
786-0 = assay: NCI 60 cell line panel; format: cell-based; details: Homo sapiens
SNB-19 = assay: NCI 60 cell line panel; format: cell-based; details: Homo sapiens, CNS Cancer
U251 = assay: NCI 60 cell line panel; format: cell-based; details: Homo sapiens, U-251, CNS Cancer
M14 = assay: NCI 60 cell line panel; format: cell-based; details: Homo sapiens, Melanoma
[1] = system: cellular microtubules in A-10 cells; assay: Microtubule depolymerization, indirect immunofluorescence; format: cell-based; details: in words
Method: Evaluation of microtubule inhibition was performed using previously described methods.^22 Indirect immunofluorescence was used to evaluate the effects of the compounds on cellular microtubules as described previously.^38 Briefly, A-10 cells were treated for 18 h with vehicle (DMSO) or a compound, and microtubule effects were evaluated microscopically using β-tubulin antibody. The EC50 was calculated from 3 independent experiments and expressed as the mean±SD.

MDA-MB-435 = assay: NCI 60 cell line panel; format: cell-based; details: Homo sapiens, Melanoma
MOLT-4 = assay: NCI 60 cell line panel; format: cell-based; details: Homo sapiens, Leukemia
MCF7 = assay: NCI 60 cell line panel; format: cell-based; details: Homo sapiens, Breast Cancer
HCT-15 = assay: NCI 60 cell line panel; format: cell-based; details: Homo sapiens, Colon Cancer
SR = assay: NCI 60 cell line panel; format: cell-based; details: Homo sapiens, Leukemia
SK-MEL-2 = assay: NCI 60 cell line panel; format: cell-based; details: Homo sapiens
SK-MEL-5 = assay: NCI 60 cell line panel; format: cell-based; details: Homo sapiens, Melanoma
OVCAR-4 = assay: NCI 60 cell line panel; format: cell-based; details: Homo sapiens, Ovarian cancer
SN 12C = assay: NCI 60 cell line panel; format: cell-based; details: Homo sapiens, SN12C, Renal Cancer
VEGFR-2 = VEGFR-2 (Homo sapiens (Human), UniProt P35968); assay: VEGFR-2 kinase inhibition, phosphotyrosine ELISA cytoblot; format: cell-based; details: U251 cells, phosphotyrosine ELISA
Sequence of VEGFR-2 (P35968 20-1356): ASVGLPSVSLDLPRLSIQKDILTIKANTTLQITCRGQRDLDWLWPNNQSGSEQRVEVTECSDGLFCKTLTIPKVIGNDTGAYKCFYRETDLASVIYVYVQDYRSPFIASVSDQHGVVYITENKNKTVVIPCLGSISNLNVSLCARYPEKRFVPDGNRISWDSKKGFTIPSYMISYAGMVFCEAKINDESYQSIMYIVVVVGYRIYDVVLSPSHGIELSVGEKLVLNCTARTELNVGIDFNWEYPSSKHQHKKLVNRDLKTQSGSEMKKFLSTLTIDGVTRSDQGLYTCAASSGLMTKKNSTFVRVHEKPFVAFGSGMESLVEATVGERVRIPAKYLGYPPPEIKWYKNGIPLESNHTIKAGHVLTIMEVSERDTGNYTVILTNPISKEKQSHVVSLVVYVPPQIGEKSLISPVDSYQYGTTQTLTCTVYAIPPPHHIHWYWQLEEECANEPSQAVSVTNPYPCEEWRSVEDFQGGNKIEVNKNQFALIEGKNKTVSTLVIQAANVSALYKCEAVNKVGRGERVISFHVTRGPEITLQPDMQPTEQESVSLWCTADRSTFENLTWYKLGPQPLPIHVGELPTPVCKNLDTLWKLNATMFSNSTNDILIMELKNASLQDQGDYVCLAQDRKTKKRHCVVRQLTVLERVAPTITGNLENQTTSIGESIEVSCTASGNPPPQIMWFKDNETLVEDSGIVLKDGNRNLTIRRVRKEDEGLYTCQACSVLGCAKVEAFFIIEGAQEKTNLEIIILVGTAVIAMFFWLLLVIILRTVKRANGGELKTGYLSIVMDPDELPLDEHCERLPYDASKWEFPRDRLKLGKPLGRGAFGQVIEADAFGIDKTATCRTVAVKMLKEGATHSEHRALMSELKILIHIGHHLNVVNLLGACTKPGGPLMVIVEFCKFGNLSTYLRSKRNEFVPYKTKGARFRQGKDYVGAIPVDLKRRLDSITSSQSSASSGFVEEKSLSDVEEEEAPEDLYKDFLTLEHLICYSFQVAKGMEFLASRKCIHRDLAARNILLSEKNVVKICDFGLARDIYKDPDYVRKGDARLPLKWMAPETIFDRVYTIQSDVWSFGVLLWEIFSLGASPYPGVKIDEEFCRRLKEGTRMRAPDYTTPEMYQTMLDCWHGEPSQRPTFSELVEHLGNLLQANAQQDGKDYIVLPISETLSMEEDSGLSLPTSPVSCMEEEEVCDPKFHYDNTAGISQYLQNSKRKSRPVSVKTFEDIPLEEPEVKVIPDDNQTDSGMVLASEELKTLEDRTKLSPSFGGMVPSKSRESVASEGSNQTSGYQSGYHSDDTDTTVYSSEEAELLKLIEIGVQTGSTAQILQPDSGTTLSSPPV
Method: (§1) Cells used were tumor cell lines naturally expressing high levels of EGFR (A431), VEGFR-2 (U251), and PDGFR-β (SH-SYSY). […] The reaction was stopped and cells were permeabilized by quickly removing the media from the cells and adding ice-cold Tris-buffered saline (TBS) containing 0.05% Triton X-100, protease inhibitor cocktail and tyrosine phosphatase inhibitor cocktail. The TBS solution was then removed and cells fixed to the plate for 30 min at 60° C. and further incubation in 70% ethanol for an additional 30 min. Cells were further exposed to block (TBS with 1% BSA) for 1 h, washed, and then a horseradish peroxidase (HRP)-conjugated phosphotyrosine (PY) antibody was added overnight.

K-562 = assay: NCI 60 cell line panel; format: cell-based; details: Homo sapiens, K562, Leukemia
MDA-MB-468 = assay: NCI 60 cell line panel; format: cell-based; details: Homo sapiens, Breast Cancer
A431 cancer cells = assay: A431 cytotoxicity (cell proliferation); format: cell-based, human; details: Homo sapiens, A-431
[2] = system: M6/6 cells (SK-OV-3 expressing Pgp); assay: Antiproliferative SRB assay; details: M6/6 (Pgp) vs SKOV3
SK-OV-3 = assay: NCI 60 cell line panel; format: cell-based; details: Homo sapiens, Ovarian cancer
BT-549 = assay: NCI 60 cell line panel; format: cell-based; details: Homo sapiens
OVCAR-5 = assay: NCI 60 cell line panel; format: cell-based; details: Homo sapiens, Ovarian cancer
HOP-62 = assay: NCI 60 cell line panel; format: cell-based; details: Homo sapiens, NSCLC
MDA-435 cells = assay: Antiproliferative SRB assay; format: cell-based; details: MDA435, 48 h, read-out: IC50 ± SD in MDA-435 cells
RXF 393 = assay: NCI 60 cell line panel; format: cell-based; details: Homo sapiens, Renal Cancer
HOP-92 = assay: NCI 60 cell line panel; format: cell-based; details: Homo sapiens, NSCLC
EGFR = EGFR (Homo sapiens (Human), UniProt P00533); assay: EGFR kinase inhibition, phosphotyrosine ELISA cytoblot; format: cell-based; details: A431 cells
Sequence of EGFR (P00533 25-1210): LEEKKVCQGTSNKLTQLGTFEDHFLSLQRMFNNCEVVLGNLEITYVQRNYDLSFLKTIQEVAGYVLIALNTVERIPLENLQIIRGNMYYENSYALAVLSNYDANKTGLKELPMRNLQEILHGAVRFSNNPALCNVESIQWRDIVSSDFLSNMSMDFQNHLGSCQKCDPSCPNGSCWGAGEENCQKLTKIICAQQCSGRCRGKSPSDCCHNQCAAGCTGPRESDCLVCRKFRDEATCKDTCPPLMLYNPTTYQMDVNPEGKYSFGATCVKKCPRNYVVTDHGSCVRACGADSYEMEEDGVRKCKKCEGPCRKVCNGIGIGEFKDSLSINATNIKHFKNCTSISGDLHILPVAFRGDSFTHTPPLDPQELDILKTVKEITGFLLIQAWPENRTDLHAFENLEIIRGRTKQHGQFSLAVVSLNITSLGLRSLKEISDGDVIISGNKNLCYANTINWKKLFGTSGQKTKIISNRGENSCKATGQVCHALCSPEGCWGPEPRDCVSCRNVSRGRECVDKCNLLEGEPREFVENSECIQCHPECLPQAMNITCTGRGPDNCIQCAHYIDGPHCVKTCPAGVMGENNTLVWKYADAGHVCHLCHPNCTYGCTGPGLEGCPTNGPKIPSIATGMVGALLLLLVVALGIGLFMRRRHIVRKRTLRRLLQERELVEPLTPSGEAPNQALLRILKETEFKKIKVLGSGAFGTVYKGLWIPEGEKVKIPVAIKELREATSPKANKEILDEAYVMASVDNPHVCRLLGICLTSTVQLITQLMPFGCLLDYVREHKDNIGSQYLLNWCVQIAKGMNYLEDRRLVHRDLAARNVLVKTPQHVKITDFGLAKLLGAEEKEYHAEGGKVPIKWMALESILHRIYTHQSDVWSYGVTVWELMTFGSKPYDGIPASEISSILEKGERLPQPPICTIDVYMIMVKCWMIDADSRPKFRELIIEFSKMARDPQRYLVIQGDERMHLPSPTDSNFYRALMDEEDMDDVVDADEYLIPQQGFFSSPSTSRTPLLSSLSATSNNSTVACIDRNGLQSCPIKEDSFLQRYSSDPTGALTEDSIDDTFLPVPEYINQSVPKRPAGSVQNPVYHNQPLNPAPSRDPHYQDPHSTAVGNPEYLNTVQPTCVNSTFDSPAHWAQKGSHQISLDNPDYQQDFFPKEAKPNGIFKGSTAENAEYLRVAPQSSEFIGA
Method: as §1

UACC-62 = assay: NCI 60 cell line panel; format: cell-based; details: Homo sapiens, Melanoma
HS 578T = assay: NCI 60 cell line panel; format: cell-based; details: Homo sapiens, Breast Cancer
SW-620 = assay: NCI 60 cell line panel; format: cell-based; details: Homo sapiens, Colon Cancer
NCI-H23 = assay: NCI 60 cell line panel; format: cell-based; details: Homo sapiens, NSCLC
HCT-116 = assay: NCI 60 cell line panel; format: cell-based; details: Homo sapiens, Colon Cancer
[3] = system: WTβ3 cells (HeLa overexpressing βIII tubulin); assay: Antiproliferative SRB assay; format: cell-based
SNB-75 = assay: NCI 60 cell line panel; format: cell-based; details: Homo sapiens, CNS Cancer
ACHN = assay: NCI 60 cell line panel; format: cell-based; details: Homo sapiens, Renal Cancer
HT29 = assay: NCI 60 cell line panel; format: cell-based; details: Homo sapiens, HT-29, Colon Cancer
OVCAR-8 = assay: NCI 60 cell line panel; format: cell-based; details: Homo sapiens, Ovarian cancer
LOX IMVI = assay: NCI 60 cell line panel; format: cell-based; details: Homo sapiens, Melanoma
NCI/ADR-RES = assay: NCI 60 cell line panel; format: cell-based; details: Homo sapiens, Ovarian cancer
HeLa cells = assay: Antiproliferative SRB assay; format: cell-based; details: Homo sapiens, HeLa, 48 h, read-out: IC50 ± SD in HeLa
NCI-H460 = assay: NCI 60 cell line panel; format: cell-based; details: Homo sapiens, NSCLC
MDA-MB-231/ATCC = assay: NCI 60 cell line panel; format: cell-based; details: Homo sapiens, Breast Cancer
KM12 = assay: NCI 60 cell line panel; format: cell-based; details: Homo sapiens, Colon Cancer
CCRF-CEM = assay: NCI 60 cell line panel; format: cell-based; details: Homo sapiens, Leukemia
PC-3 = assay: NCI 60 cell line panel; format: cell-based; details: Homo sapiens, Prostate Cancer
CAKI-1 = assay: NCI 60 cell line panel; format: cell-based; details: Homo sapiens, Renal Cancer
EKVX = assay: NCI 60 cell line panel; format: cell-based; details: Homo sapiens, NSCLC
HL-60(TB) = assay: NCI 60 cell line panel; format: cell-based; details: Homo sapiens, Leukemia
DU-145 = assay: NCI 60 cell line panel; format: cell-based; details: Homo sapiens, Prostate Cancer
SF-268 = assay: NCI 60 cell line panel; format: cell-based; details: Homo sapiens, CNS Cancer
SKOV3 cells = assay: Antiproliferative SRB assay; format: cell-based; details: Homo sapiens, SK-OV-3, 48 h, read-out: IC50 ± SD in SKOV3 cells
IGROV1 = assay: NCI 60 cell line panel; format: cell-based; details: Homo sapiens, IGROV-1, Ovarian cancer
TK-10 = assay: NCI 60 cell line panel; format: cell-based; details: Homo sapiens, Renal Cancer
NCI-H522 = assay: NCI 60 cell line panel; format: cell-based; details: Homo sapiens, NSCLC
OVCAR-3 = assay: NCI 60 cell line panel; format: cell-based; details: Homo sapiens, Ovarian cancer
COLO 205 = assay: NCI 60 cell line panel; format: cell-based; details: Homo sapiens, Colon Cancer
SF-295 = assay: NCI 60 cell line panel; format: cell-based; details: Homo sapiens, CNS Cancer
SF-539 = assay: NCI 60 cell line panel; format: cell-based; details: Homo sapiens, CNS Cancer

SMILES: Cc1nc(N(C)c2ccc3c(c2)CCO3)c2cc(C)oc2n1 [Compound 6, N-(2,3-dihydro-1-benzofuran-5-yl)-N,2,6-trimethylfuro[2,3-d]pyrimidin-4-amine]
- GI50 (786-0): 80.4 nM
- GI50 (SNB-19): 56.5 nM
- GI50 (U251): 39.7 nM
- GI50 (M14): 34.8 nM
- effect on cellular microtubules [1]: dose-dependent loss of cellular microtubules
- GI50 (MDA-MB-435): 14 nM
- GI50 (MOLT-4): 76.7 nM
- GI50 (MCF7): 40.2 nM
- GI50 (HCT-15): 38.9 nM
- GI50 (SR): 36.6 nM
- GI50 (SK-MEL-2): 26.4 nM
- GI50 (SK-MEL-5): 31.4 nM
- GI50 (OVCAR-4): 83.4 nM
- GI50 (SN 12C): 97.2 nM
- IC50 (VEGFR-2): 6.7 ± 0.81 nM
- GI50 (K-562): 31.7 nM
- GI50 (MDA-MB-468): 22.1 nM
- IC50 (A431 cancer cells): 38.3 ± 4.2 nM
- Rr value (relative resistance) [2]: 1.3
- GI50 (SK-OV-3): 37.6 nM
- GI50 (BT-549): 77.2 nM
- GI50 (OVCAR-5): 262 nM
- GI50 (HOP-62): 39.6 nM
- IC50 (MDA-435 cells): 96.2 ± 13 nM
- GI50 (RXF 393): 21.2 nM
- GI50 (HOP-92): 45.8 nM
- IC50 (EGFR): 226 ± 50.2 nM
- GI50 (UACC-62): 61.3 nM
- GI50 (HS 578T): 31 nM
- GI50 (SW-620): 41.6 nM
- GI50 (NCI-H23): 43.9 nM
- GI50 (HCT-116): 45.1 nM
- IC50 ([3]; Homo sapiens, HeLa, SRB, 48 h, read-out: IC50 ± SD in WTβ3): 94 ± 7 nM
- Rr value (relative resistance) ([3]; WTβ3 vs HeLa): 0.9
- GI50 (SNB-75): 30.4 nM
- GI50 (ACHN): 64.2 nM
- GI50 (HT29): 32.4 nM
- GI50 (OVCAR-8): 63 nM
- GI50 (LOX IMVI): 45.6 nM
- GI50 (NCI/ADR-RES): 26.5 nM
- IC50 (HeLa cells): 105 ± 5.8 nM
- GI50 (NCI-H460): 42 nM
- GI50 (MDA-MB-231/ATCC): 148 nM
- GI50 (KM12): 40.1 nM
- GI50 (CCRF-CEM): 58.1 nM
- GI50 (PC-3): 52.2 nM
- GI50 (CAKI-1): 40.1 nM
- GI50 (EKVX): 70 nM
- GI50 (HL-60(TB)): 27.6 nM
- GI50 (DU-145): 44.1 nM
- GI50 (SF-268): 13.9 nM
- IC50 (SKOV3 cells): 120 ± 5 nM
- GI50 (IGROV1): 62.9 nM
- GI50 (TK-10): 50.2 nM
- GI50 (NCI-H522): 12.9 nM
- GI50 (OVCAR-3): 24.5 nM
- GI50 (COLO 205): 40.3 nM
- GI50 (SF-295): 30.5 nM
- GI50 (SF-539): 31.6 nM
